Literature values as cited in patent US9801371B2, “Self-assembling polymer particle release system” (priority 2010, dated 2017).
Like-named read-outs stand apart in the source and are kept apart here.

Settings: cited from earlier work
[1] = Table 26, USDA Pesticide Properties Database

Compound | KOC (Tables 21-25) | KOC [1]
O=C(O)Cc1cccc2ccccc12 [1-Napthylacetic Acid] | 385 | –
CCNc1nc(NC(C)C)nc(SC)n1 [Ametryn] | 316 | –
Clc1nc(Cl)nc(Nc2ccccc2Cl)n1 [Anilazine] | 2000 | –
CCNc1nc(Cl)nc(NC(C)C)n1 [Atrazine] | 100 | –
COP(=S)(OC)SCn1nnc2ccccc2c1=O [Azinphosmethyl] | 1000 | –
CCOP(=S)(OCC)OC(Cl)C(Cl)(Cl)Cl (stereo not shown) [Chlorethoxyfos] | 6100 | –
CCOC(=O)c1ccccc1S(=O)(=O)NC(=O)Nc1nc(Cl)cc(OC)n1 [Chlorimuron-Ethyl] | 106 | –
CCOP(=S)(OCC)Oc1nc(Cl)c(Cl)cc1Cl [Chlorpyrifos] | – | 6,000 mg/g
COc1nc(C)nc(NC(=O)NS(=O)(=O)c2ccccc2Cl)n1 [Chlorsulfuron] | 36.3 | –
CCNc1nc(Cl)nc(NC(C)(C)C#N)n1 [Cyanazine] | 190 | –
CCOP(=S)(OCC)Oc1cc(C)nc(C(C)C)n1 [Diazinon] | – | 1000 mg/g
COP(=O)(OC)O/C(C)=C/C(=O)N(C)C [Dicrotophos] | 75 | –
CNC(=O)CSP(=S)(OC)OC [Dimethonate] | 30 | –
CCOP(=S)(OCC)SCCSCC [Disulfuton] | 13454 | –
CN(C)C(=O)Nc1ccc(Cl)c(Cl)c1 [Diuron] | 1067 | –
COP(=S)(OC)Oc1ccc(SC)c(C)c1 [Fenthion] | 1500 | –
Cc1ccn2nc(S(=O)(=O)Nc3c(F)cccc3F)nc2n1 [Flumetsulam] | 28 | –
CN(C)C(=O)Nc1cccc(C(F)(F)F)c1 [Fluometuron] | 67.4 | –
CS(=O)(=O)NC(=O)c1cc(Oc2ccc(C(F)(F)F)cc2Cl)ccc1[N+](=O)[O-] [Fomesafen] | 50 | –
CN(C)c1nc(=O)n(C2CCCCC2)c(=O)n1C [Hezazinone] | 54 | –
CC(C)C1(C)N=C(c2nc3ccccc3cc2C(=O)O)NC1=O (stereo not shown) [Imazaquin] | 18 | –
CCc1cnc(C2=NC(C)(C(C)C)C(=O)N2)c(C(=O)O)c1 (stereo not shown) [Imazethapyr] | 52 | –

Compound | KOC (Tables 21-25) | KOC [1]
COP(=S)(OC)Oc1cc(Cl)c(I)cc1Cl [Iodufenphos] | 50000 | –
CCOP(=S)(OCC)Oc1nc(Cl)n(C(C)C)n1 [Isazofos] | 155 | –
CC(C)c1ccc(NC(=O)N(C)C)cc1 [Isoproturon] | 122 | –
O=C(NC(=O)c1c(F)cccc1F)Nc1cc(Cl)c(OC(F)(F)C(F)C(F)(F)F)cc1Cl (stereo not shown) [Lufenuron] | 41182 | –
CN(C)C(=O)Nc1ccc(Cl)cc1 [Monuron] | 150 | –
COc1cc(OC)nc(NC(=O)NS(=O)(=O)c2ncccc2C(=O)N(C)C)n1 [Nicosulfuron] | 21 | –
C[n+]1ccc(-c2cc[n+](C)cc2)cc1 [Paraquat] | – | 1,000,000 mg/g
CCOP(=S)(OCC)Oc1ccc([N+](=O)[O-])cc1 [Parathion] | 7660 | –
CCOP(=S)(OCC)SCSCC [Phorate] | 1660 | –
Nc1c(Cl)c(Cl)nc(C(=O)O)c1Cl [Picloram] | 35 | –
CCCOP(=S)(OCCC)SCC(=O)N1CCCCC1C (stereo not shown) [Piperophos] | 5202 | –
O=C(Nc1nc(OC(F)F)cc(OC(F)F)n1)NS(=O)(=O)c1ccccc1C(=O)O [Primisulfuron] | 50 | –
CCCSP(=O)(OCC)Oc1ccc(Br)cc1Cl (stereo not shown) [Profenofos] | 2016 | –
COc1nc(NC(C)C)nc(NC(C)C)n1 [Prometon] | 150 | –
CSc1nc(NC(C)C)nc(NC(C)C)n1 [Prometryn] | 400 | –
CC(C)Nc1nc(Cl)nc(NC(C)C)n1 [Propazine] | 154 | –
CCCC1COC(Cn2cncn2)(c2ccc(Cl)cc2Cl)O1 (stereo not shown) [Propiconazole] | 1086 | –
O=C(O)c1c(Cl)ccc2cc(Cl)cnc12 [Quinclorac] | 50 | –
CCS(=O)(=O)c1cccnc1S(=O)(=O)NC(=O)Nc1nc(OC)cc(OC)n1 [Rimsulfuron] | 47 | –
CC1CCCCC1NC(=O)Nc1ccccc1 (stereo not shown) [Siduron] | 420 | –
CCNc1nc(Cl)nc(NCC)n1 [Simazine] | 130 | –
